Measured values published in patent US20240173440A1, “HIGH PURITY COPPER RADIOPHARMACEUTICAL COMPOSITIONS AND DIAGNOSTIC AND THERAPEUTIC USES THEREOF” (Nuclidium AG, priority 2022, published 2024).

Key:
PSMA = PSMA (Homo sapiens (Human), UniProt Q04609); experiment: Competitive binding assay (IC50) on LNCaP cells with radioligand [125I-BA]KuE; conditions: 1 hour on ice, radioligand [^125I-BA]KuE 0.2 nM, mean ± SD
Procedure: In the case of the PSMA constructs, the radioiodinated ((S)-1-carboxy-5-(4-(-^125I-iodo-benzamido)pentyl)carbamoyl)-L-glutamic acid ([^125I-BA]KuE) was used as reference radioligand. The assay was performed on LNCaP cells seeded in 24-well plates (1.5×10^5 cells/well). The cells were incubated with increased concentrations of each ^natCu-complexed conjugates (ranging from 0.1 up to 100 nM) in the presence of 0.2 nM [^125I-BA]KuE. After 1 hour incubation on ice, the unbound (free) [^125I-BA]KuE was collected by removing the medium and the cells were detached with NaOH 1 M for counting (bound radioligand). Non-specific binding was defined as the amount of binding activity in the presence of the blocking agent 2-(phosphonomethyl)pentanedioic acid (2-PMPA) in high excess (10 μM).
(§1) Quantification of the free and bound radioligand was performed in a gamma-counter. The data were analyzed by GraphPad Prism 9 Software and the IC50 values were determined using the “log(inhibitor) vs response” equation based on the specific binding=total−non-specific binding.
(§2) Table 18. IC50 values were determined by competitive assays. […] The results are expressed as means standard deviation (SD) from a minimum of two separate experiments, each in triplicates.

[1] = Lipophilicity, log D by shake-flask method (1-octanol/PBS pH 7.4); format: physicochemical; conditions: pH 7.4, shake-flask, Table 17, mean ± SD, read-out: log D(O/PBS pH 7.4)
How it was run: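 Radiotracer shaken 30 min in pre-saturated 1-octanol/PBS pH 7.4 (1:1), then centrifuged for phase separation. Radioactivity in each phase measured by gamma counting; log D reported as the average log of organic/PBS activity ratio.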

SST2 [2] = target: T1, SST2 (Homo sapiens (Human), UniProt P30874); experiment: Saturation binding on HEK-SST2 cell membranes; conditions: 37° C.
Procedure: Cell Membrane Preparation: HEK-SST2 cells were grown to confluence, mechanically disaggregated, washed with PBS (pH 7.4) and re-suspended in 20 mM of homogenization Tris buffer (pH 7.5) containing 1.3 mM EDTA, 0.25 M sucrose, 0.7 mM bacitracin, 5 μM soybean trypsin inhibitor, and 0.7 mM PMSF. The cells were homogenized using Ultra-Turrax, and the homogenized suspension was centrifuged at 500×g for 10 min at 4° C. The supernatant was collected in centrifuge tubes (Beckman Coulter Inc., Brea, CA, USA). This procedure was then repeated 5 times. The collected supernatant was centrifuged in an ultra-centrifuge (Beckman) at 4° C. for 55 min at 49,000×g. Then, the pellet was re-suspended in 10 mM ice-cold HEPES buffer (pH 7.5), aliquoted, and stored at −80° C. The protein concentration of those membrane suspensions was determined by the Bradford method, BSA as the standard.
Saturation Experiment: The association profiles of [^61Cu]Cu-NODAGA-LM3 was studied at different concentrations, ranging from 0.075 to 10 nM, in HEK-SST2 cell membranes at 37° C. Each assay tube contained 170 μL of binding buffer (20 mM HEPES, pH 7.4, containing 4 mM μgCl2, 0.2% BSA, 20 μg/L bacitracin, 20 μg/L PMSF and 200,000 KIU/L aprotinin). […] The dissociation constant (KD) and maximal binding capacity (Bmax) values were calculated using GraphPad Software Inc., Prism 7, San Diego, CA, USA (FIG. 37)

HEK-SST2 xenografts = experiment: PET/CT imaging in HEK-SST2 xenografted mice; format: in vivo; conditions: 0-60 min and 240 min
Procedure: Tumor xenografted mice were injected intravenously into the tail vein with the tested radiotracer. […] Mice were anesthetized with 1.5% isoflurane and dynamic PET scans were acquired during 1 hour upon injection of the radiotracer. The mice were euthanized by CO2 at 4 hours p.i., the bladder was mechanically emptied, and static PET scans were acquired for 30 min. PET images were acquired using the R-CUBE PET scanner system (MOLECUBES, Gent, Belgium) and they were decay corrected and reconstructed with the VivoQuant software version 4.0. The CT was imaged supine, headfirst, using the NanoSPECT/CT™ scanner (Bioscan Inc.). Topograms and helical CT scans of the whole mouse were first acquired using the following parameters: X-ray tube current: 177 μA, X-ray tube voltage 45 kVp, 90 seconds and 180 frames per rotation, pitch 1. CT images were reconstructed using CTReco (version r1.146), with a standard filtered back projection algorithm (exact cone beam) and post-filtered (RamLak, 100% frequency cut-off), resulting in a pixel size of 0.2 mm. Co-registered PET/CT images were visualized using maximum intensity projection (MIP) with InVivoScope (version 1.43, Bioscan Inc.). The results are presented in the Examples that follow.

in vivo = conditions: iv, 20 umol, total radioactivity
Procedure: The tumors were allowed to grow for 1-3 weeks before commencement of the experiments.
The mice were randomly distributed in groups and euthanized at 1 and at 4 hours post-injection. The organs of interest were collected, rinsed, blotted, weighed and counted in a gamma counter. The results are expressed as percentage of injected activity per gram (% IA/g), representing the mean±standard deviation of n=4-8 mice per group and they were obtained by extrapolation from counts of an aliquot taken from the injected solution as standard.
The mice were randomly distributed in groups, injected with the radiotracer under investigation and euthanized at 1 and at 4 hours post-injection of the radiotracers under investigation. The organs of interest were collected, rinsed, blotted, weighed and counted in a gamma counter. The results are expressed as percentage of injected activity per gram (% IA/g), representing the mean±standard deviation of all mice per group and they were obtained by extrapolation from counts of an aliquot taken from the injected solution as standard.
The mice were randomly distributed in groups and euthanized at 4 hours post-injection. The organs of interest were collected, rinsed, blotted, weighed, and their respective radioactivity was counted in a gamma counter.

SST2 [3] = target: T1, SST2; experiment: Competitive binding assay (IC50) on HEK-SST2 cell membranes with 125I-Tyr-somatostatin-14; conditions: 1 hour at 37° C., radioligand [^125I]-Tyr-somatostatin-14 0.05 nM, mean ± SD
Procedure: as §1, §2

[4] = athymic nude Foxn1+Foxn1+, mouse, Biodistribution Adrenal
[5] = athymic nude Foxn1+Foxn1+, mouse, Biodistribution Blood
[6] = athymic nude Foxn1+Foxn1+, mouse, Biodistribution Heart
[7] = athymic nude Foxn1+Foxn1+, mouse, Biodistribution Intestine
[8] = athymic nude Foxn1+Foxn1+, mouse, Biodistribution Liver
[9] = athymic nude Foxn1+Foxn1+, mouse, Biodistribution Lung
[10] = athymic nude Foxn1+Foxn1+, mouse, Biodistribution Pancreas
[11] = athymic nude Foxn1+Foxn1+, mouse, Biodistribution Spleen
[12] = athymic nude Foxn1+Foxn1+, mouse, Biodistribution Stomach
[13] = athymic nude Foxn1, mouse, Biodistribution Bone
[14] = athymic nude Foxn1, mouse, Biodistribution Kidneys
[15] = athymic nude Foxn1, mouse, Biodistribution Muscle
[16] = athymic nude Foxn1, mouse, Biodistribution Pituitary
[17] = athymic nude Foxn1, mouse, Biodistribution SSTR2-tumor

T1 sequence (P30874 whole entry): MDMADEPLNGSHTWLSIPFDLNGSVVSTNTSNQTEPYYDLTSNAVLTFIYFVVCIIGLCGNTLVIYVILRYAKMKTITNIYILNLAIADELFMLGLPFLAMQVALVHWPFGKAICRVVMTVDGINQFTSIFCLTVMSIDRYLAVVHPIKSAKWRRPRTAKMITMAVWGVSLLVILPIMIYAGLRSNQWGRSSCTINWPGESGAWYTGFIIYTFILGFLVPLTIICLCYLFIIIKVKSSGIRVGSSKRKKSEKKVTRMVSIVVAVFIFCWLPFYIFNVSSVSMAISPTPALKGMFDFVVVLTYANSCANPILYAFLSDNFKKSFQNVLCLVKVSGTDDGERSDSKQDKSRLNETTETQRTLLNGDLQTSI
Sequence of PSMA (Q04609 whole entry): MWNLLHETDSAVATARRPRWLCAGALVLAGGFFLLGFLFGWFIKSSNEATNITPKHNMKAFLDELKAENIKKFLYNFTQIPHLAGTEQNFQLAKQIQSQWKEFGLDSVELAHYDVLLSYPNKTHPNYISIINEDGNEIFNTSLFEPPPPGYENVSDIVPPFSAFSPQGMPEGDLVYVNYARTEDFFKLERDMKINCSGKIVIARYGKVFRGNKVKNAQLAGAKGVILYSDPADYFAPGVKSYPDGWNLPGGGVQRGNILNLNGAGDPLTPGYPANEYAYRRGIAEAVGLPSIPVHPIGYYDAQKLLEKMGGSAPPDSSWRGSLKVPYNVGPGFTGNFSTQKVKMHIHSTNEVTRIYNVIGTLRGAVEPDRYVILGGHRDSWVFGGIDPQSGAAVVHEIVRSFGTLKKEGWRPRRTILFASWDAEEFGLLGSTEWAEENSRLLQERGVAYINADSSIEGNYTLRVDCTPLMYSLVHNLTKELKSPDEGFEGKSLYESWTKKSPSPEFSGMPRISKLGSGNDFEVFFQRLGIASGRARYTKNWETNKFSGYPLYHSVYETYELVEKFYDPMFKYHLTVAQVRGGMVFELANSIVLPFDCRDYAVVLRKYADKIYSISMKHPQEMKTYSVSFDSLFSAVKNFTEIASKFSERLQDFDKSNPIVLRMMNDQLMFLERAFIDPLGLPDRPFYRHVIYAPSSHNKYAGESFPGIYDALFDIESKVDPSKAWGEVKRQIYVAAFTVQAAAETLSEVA

| IC50 (PSMA) [nM] | logD [1] | Kd (SST2 [2]) [nM] | distribution pattern on PET/CT (HEK-SST2 xenografts) | tissue uptake at 4 h (in vivo; [4]) [%ID/g] | tissue uptake at 4 h (in vivo; [5]) [%ID/g] | tissue uptake at 4 h (in vivo; [6]) [%ID/g] | tissue uptake at 4 h (in vivo; [7]) [%ID/g] | tissue uptake at 4 h (in vivo; [8]) [%ID/g] | tissue uptake at 4 h (in vivo; [9]) [%ID/g] | tissue uptake at 4 h (in vivo; [10]) [%ID/g] | tissue uptake at 4 h (in vivo; [11]) [%ID/g] | tissue uptake at 4 h (in vivo; [12]) [%ID/g] | tissue uptake at 4 h (in vivo; [13]) [%ID/g] | tissue uptake at 4 h (in vivo; [14]) [%ID/g] | tissue uptake at 4 h (in vivo; [15]) [%ID/g] | tissue uptake at 4 h (in vivo; [16]) [%ID/g] | tissue uptake at 4 h (in vivo; [17]) [%ID/g] | IC50 (SST2 [3]) [nM] | SMILES |
| --- | --- | --- | --- | --- | --- | --- | --- | --- | --- | --- | --- | --- | --- | --- | --- | --- | --- | --- | --- |
| 9.3 ± 1.8 | – | – | – | – | – | – | – | – | – | – | – | – | – | – | – | – | – | – | O=C([O-])CN1CCN(CC(=O)[O-])CCN([C@H](CCC(=O)N[C@H](Cc2ccc(O)c(I)c2)C(=O)N[C@H](Cc2ccccc2)C(=O)N[C@H](CCCCNC(=O)CCCCCCC(=O)NCCCC[C@H](NC(=O)N[C@@H](CCC(=O)O)C(=O)O)C(=O)O)C(=O)O)C(=O)O)CC1.[Cu+2] [^natCu-NODAGA-PSMA-I&T] |
| – | -2.42 ± 0.04 | 1.41 to 2.92 | same distribution pattern | 0.6 ± 0.15 | 0.11 ± 0.02 | 0.13 ± 0.02 | 0.43 ± 0.08 | 0.44 ± 0.06 | 0.32 ± 0.05 | 0.43 ± 0.12 | 0.14 ± 0.01 | 0.68 ± 0.15 | 0.31 ± 0.07 | 4.59 ± 0.41 | 0.06 ± 0.02 | 2.96 ± 0.62 | 20.4 ± 4.2 | – | C[C@@H](O)[C@@H]1NC(=O)[C@H](CCCCN)NC(=O)[C@@H](Cc2ccc(NC(N)=O)cc2)NC(=O)[C@H](Cc2ccc(O)cc2)NC(=O)[C@H](NC(=O)[C@H](Cc2ccc(Cl)cc2)NC(=O)CCC(C(=O)O)N2CCN(CC(=O)O)CCN(CC(=O)O)CC2)CSSC[C@@H](C(=O)N[C@H](Cc2ccc(O)cc2)C(N)=O)NC1=O (some centres unmarked) [[^61Cu]Cu-NODAGA-LM3, metal not drawn] |
| 11.2 ± 2.3 | – | – | – | – | – | – | – | – | – | – | – | – | – | – | – | – | – | – | O=C([O-])CN1CCN(CC(=O)[O-])CCN(C(CCC(=O)N[C@H](Cc2ccc(O)c(I)c2)C(=O)N[C@H](Cc2ccccc2)C(=O)N[C@H](CCCCNC(=O)CCCCCCC(=O)NCCCC[C@H](NC(=O)N[C@@H](CCC(=O)O)C(=O)O)C(=O)O)C(=O)O)C(=O)O)CCN(CC(=O)O)CC1.[Cu+2] (some centres unmarked) [^natCu-DOTAGA-PSMA-I&T, reference compound] |
| – | – | – | – | – | – | – | – | – | – | – | – | – | – | – | – | – | – | 17.8 ± 2 | CC(O)C1NC(=O)C(CCCCN)NC(=O)C(Cc2ccc(NC(N)=O)cc2)NC(=O)C(Cc2ccc(O)cc2)NC(=O)C(NC(=O)C(Cc2ccc(Cl)cc2)NC(=O)CCC(C(=O)O)N2CCN(CC(=O)O)CCN(CC(=O)O)CC2)CSSCC(C(=O)NC(Cc2ccc(O)cc2)C(N)=O)NC1=O (centres unmarked) [NODAGA-LM3] |
| – | – | – | same distribution pattern | 0.61 ± 0.18 | 0.1 ± 0.01 | 0.17 ± 0.02 | 0.58 ± 0.13 | 0.73 ± 0.06 | 0.42 ± 0.05 | 0.44 ± 0.24 | 0.17 ± 0.02 | 0.78 ± 0.14 | 0.42 ± 0.12 | 3.87 ± 0.51 | 0.1 ± 0.02 | 3.64 ± 0.31 | 19 ± 2.11 | – | C[C@@H](O)[C@@H]1NC(=O)[C@H](CCCCN)NC(=O)[C@@H](Cc2ccc(NC(N)=O)cc2)NC(=O)[C@H](Cc2ccc(O)cc2)NC(=O)[C@H](NC(=O)[C@H](Cc2ccc(Cl)cc2)NC(=O)CC[C@H](C(=O)O)N2CCN(CC(=O)O)CCN(CC(=O)O)CC2)CSSC[C@@H](C(=O)N[C@H](Cc2ccc(O)cc2)C(N)=O)NC1=O [[^61Cu]Cu-(R)-NODAGA-LM3, metal not drawn] |
